Measurements reported in patent US4898870A, “Pyrroloquinoline quinone compounds useful as an enzyme inhibitor” (Sogo Pharmaceutical Company Limited, priority 1986, dated 1990).
Values belong to the compound of their own block, whether it stands above or below them.

Columns and labels:
Type in all cases: biochemical
[1] = biological target: T1, rat lens aldose reductase (Rattus norvegicus, UniProt P07943); experiment: Inhibition of rat lens aldose reductase (NADPH2 OD decrease at 340 nm); settings: for inhibition at 10 µM: inhibitor 10^-5 M/reaction soln.; for inhibition at 1 µM: inhibitor 10^-6 M/reaction soln.; for IC50: rat lens homogenate, substrate dl-glyceraldehyde; for IC100: rat lens, read-out: concentration inhibiting the activity by 100%
T1 construct: A homogenate of rat lens was used; from tissue; host or cells: rat lens (crude homogenate; in later tests the 3,000 rpm supernatant)
Procedure: A homogenate of rat lens was used and the activity of aldose reductase was measured by the method of Kinoshita, et. al. (Kinoshita J. H., et al, Metabolism, 28, 462-469, (1979)).
(§1) Specifically reaction was started by adding dl-glyceraldehyde as a substrate to a reaction solution containing rat lens homogenate, Li2 SO4, NADPH2 and inhibitor, and the enzyme activity was measured by the decrease of the optical absorption of NADPH2 (optical density: OD) at 340 nm for 5 min. The solution with no addition of the substrate was used for the blank OD. The inhibiting ratio for the aldose reductase reaction by the inhibitor was determined by the following equation: [formula]
(§2) To a reaction solution containing the chick lens homogenate, Li2 SO4, NADPH2 and an inhibitor, was added dlglyceraldehyde as substrate to start the reaction, and the enzymatic activity was determined by measuring the decrease in optical density (OD) of NADPH2 at 340 nm after five minutes. A solution with no substrate added was used for the blank test. The inhibition rate against the aldose reductase reaction was calculated from the following equation: [formula]
A homogenate of rat lens was centrifuged for four minutes at 3,000 rpm under cooling, the supernatant was collected as an enzyme solution, and the inhibitory action of PQQ·H2 against aldose reductase was measured in the same way as in Test Example 4.
An enzyme solution was prepared from rat lens in the same manner as in Test Example 10, and the inhibitory action of PQQ·3Me against rat lens aldose reductase was measured in the same way as in Test Example 4.

[2] = biological target: T2, human placental aldose reductase (Homo sapiens, UniProt P15121); experiment: Inhibition of human placental aldose reductase; settings: for IC50: human placenta enzyme
T2 construct: An enzyme solution was prepared from human placenta; from tissue; host or cells: human placenta
Procedure: as §1
The determination of enzyme activity was same as in Test Example 1 except enzyme source was human placenta.
as §2
An enzyme solution was prepared from human placenta, and the inhibitory action of PQQ·2K against human placental aldose reductase was measured in the same way as in Test Example 4.
An enzyme solution was prepared from human placenta, and the inhibitory action of PQQ·3Me against human placental aldose reductase was measured in the same way as in Test Example 4.
An enzyme solution was prepared from human placenta, and the inhibitory action of PQQ·2Me.Et against human placental aldose reductase was measured in the same way as in Test Example 4.

[3] = tested on: chick lens aldose reductase; experiment: Inhibition of chick lens aldose reductase; settings: for concentration inhibiting the activity by 100%: chick lens; for IC50: chick lens homogenate, read-out: concentration inhibiting the aldose reductase activity by 50%
Procedure: The activity of aldose reductase was measured according to the method of Kinoshita et al. [Metabolism, 28, 462-469 (1979)] using a homogenate of chick lens.
as §2
An enzyme solution was prepared from chick lens in the same manner as in Test Example 4, and the inhibitory action of PQQ·H2 against aldose reductase was measured in the same way as in Test Example 4.
An enzyme solution was prepared from chick lens in the same manner as in Test Example 4, and the inhibitory action of PQQ·3Me against aldose reductase was measured in the same way as in Test Example 4.

[4] = biological target: T3, bovine lens aldose reductase (Bos taurus, UniProt P16116); experiment: Inhibition of bovine lens aldose reductase; settings: for IC50: bovine lens enzyme; for IC100: bovine lens, read-out: concentration inhibiting the activity by 100%; for inhibition at 4 µM: inhibitor 4 × 10^-6 M/reaction soln.; for inhibition at 6 µM: inhibitor 6 × 10^-6 M/reaction soln.; for inhibition at 8 µM: inhibitor 8 × 10^-6 M/reaction soln.; for inhibition at 10 µM: inhibitor 10^-5 M/reaction soln.; for inhibition at 1 µM: inhibitor 10^-6 M/reaction soln.; for inhibition at 0.1 µM: inhibitor 10^-7 M/reaction soln.
T3 construct: A homogenate of bovine lens was centrifuged for ten minutes at 20,000 rpm under cooling; from tissue; host or cells: bovine lens (20,000 rpm supernatant of homogenate)
Procedure: as §1
The determination of enzyme activity was same as in Test Example 1 except enzyme source was bovine lens.
as §2
A homogenate of bovine lens was centrifuged for ten minutes at 20,000 rpm under cooling, the supernatant was collected as an enzyme solution, and the inhibitory action of PQQ against aldose reductase was measured in the same way as in Test Example 4.
A homogenate of bovine lens was centrifuged for ten minutes at 20,000 rpm under cooling, the supernatant was collected as an enzyme solution, and the inhibitory action of PQQ·H2 against bovine lens aldose reductase was measured in the same way as in Test Example 4.
An enzyme solution was prepared from chick lens in the same manner as in Test Example 9, and the inhibitory action of PQQ·3Me against bovine lens aldose reductase was measured in the same way as in Test Example 4.

[5] = inhibitor 2 × 10^-6 M/reaction soln., read-out: Inhibition Rate
[6] = inhibitor 10^-4 M/reaction soln., read-out: Inhibition Rate
[7] = inhibitor 10^-5 M/reaction soln.
[8] = inhibitor 10^-6 M/reaction soln.
[9] = inhibitor 10^-7 M/reaction soln.

inhibition at 2 µM [1, 5]: 3.3% | inhibition at 4 µM ([1]; inhibitor 4 × 10^-6 M/reaction soln., read-out: Inhibition Rate): 23.5% | inhibition at 6 µM ([1]; inhibitor 6 × 10^-6 M/reaction soln., read-out: Inhibition Rate): 54.4% | inhibition at 8 µM ([1]; inhibitor 8 × 10^-6 M/reaction soln., read-out: Inhibition Rate): 98.9% | inhibition at 100 µM [1, 6]: 100% | inhibition at 10 µM ([1]; read-out: Inhibition Rate): 100% | inhibition at 1 µM ([1]; read-out: Inhibition Rate): 0% | IC50 [1]: 5.8 µM | IC100 [1]: 10 µM | IC50 [2]: 0.39 µM | IC100 ([2]; human placenta, read-out: concentration inhibiting the activity by 100%): 2.5 µM | inhibition at 0.2 µM ([2]; inhibitor 2 × 10^-7 M/reaction soln., read-out: Inhibition Rate): 15% | inhibition at 2.5 µM ([2]; inhibitor 2.5 × 10^-6 M/reaction soln., read-out: Inhibition Rate): 100% | inhibition at 0.3 µM ([2]; inhibitor 3 × 10^-7 M/reaction soln., read-out: Inhibition Rate): 34.4% | inhibition at 0.4 µM ([2]; inhibitor 4 × 10^-7 M/reaction soln., read-out: Inhibition Rate): 50.6% | inhibition at 5 µM ([2]; inhibitor 5 × 10^-6 M/reaction soln., read-out: Inhibition Rate): 100% | inhibition at 0.5 µM ([2]; inhibitor 5 × 10^-7 M/reaction soln., read-out: Inhibition Rate): 63.9% | inhibition at 0.08 µM ([2]; inhibitor 8 × 10^-8 M/reaction soln., read-out: Inhibition Rate): 1.7% | inhibition at 0.1 µM ([2]; inhibitor 10^-7 M/reaction soln., read-out: Inhibition Rate): 10% | concentration inhibiting the activity by 100% [3]: 8 µM | IC50 [3]: 3 µM | Inhibition Rate ([3]; inhibitor 2 × 10^-6 M/reaction soln.): 30.0% | Inhibition Rate ([3]; inhibitor 4 × 10^-6 M/reaction soln.): 77.1% | Inhibition Rate ([3]; inhibitor 6 × 10^-6 M/reaction soln.): 87.1% | Inhibition Rate ([3]; inhibitor 8 × 10^-6 M/reaction soln.): 100% | Inhibition Rate [3, 7]: 100% | Inhibition Rate [3, 8]: 0% | concentrations at which effective ([4]; bovine lens (Table 13)): ≥ 10^-6 M | IC50 [4]: 4.2 µM | IC100 [4]: 6 µM | inhibition at 2 µM [4, 5]: 22.6% | inhibition at 4 µM ([4]; read-out: Inhibition Rate): 45.8% | inhibition at 6 µM ([4]; read-out: Inhibition Rate): 100% | inhibition at 8 µM ([4]; read-out: Inhibition Rate): 100% | inhibition at 10 µM ([4]; read-out: Inhibition Rate): 100% | inhibition at 1 µM ([4]; read-out: Inhibition Rate): 10% | inhibition at 0.1 µM ([4]; read-out: Inhibition Rate): 0%
Compound: COC(=O)c1cc(C(=O)OC)c2c(n1)C(=O)C(=O)c1cc(C(=O)OC)[nH]c1-2 [PQQ.3Me, PQQ trimethyl ester]

inhibition at 20 µM ([1]; inhibitor 2 × 10^-5 M/reaction soln., read-out: Inhibition Rate): 100% | inhibition at 10 µM ([1]; read-out: Inhibition Rate): 59.5% | inhibition at 1 µM ([1]; read-out: Inhibition Rate): 15.1% | Inhibition Rate ([1]; inhibitor concentration not printed (first line of Table 11)): 0% | IC50 [1]: 8.5 µM | IC100 [1]: 20 µM | concentration inhibiting the activity by 100% [3]: 60 µM | IC50 [3]: 6 µM | Inhibition Rate ([3]; inhibitor 2 × 10^-5 M/reaction soln.): 68.4% | Inhibition Rate ([3]; inhibitor 4 × 10^-5 M/reaction soln.): 92.8% | Inhibition Rate ([3]; inhibitor 6 × 10^-5 M/reaction soln.): 100% | Inhibition Rate ([3]; inhibitor 8 × 10^-5 M/reaction soln.): 100% | Inhibition Rate ([3]; inhibitor 10^-4 M/reaction soln.): 100% | Inhibition Rate [3, 7]: 62.1% | Inhibition Rate [3, 8]: 31.8% | Inhibition Rate [3, 9]: 0% | IC50 [4]: 5 µM | IC100 [4]: 8 µM | inhibition at 4 µM ([4]; read-out: Inhibition Rate): 27.8% | inhibition at 6 µM ([4]; read-out: Inhibition Rate): 89.9% | inhibition at 8 µM ([4]; read-out: Inhibition Rate): 100% | inhibition at 100 µM [4, 6]: 100% | inhibition at 10 µM ([4]; read-out: Inhibition Rate): 100% | inhibition at 1 µM ([4]; read-out: Inhibition Rate): 0% | inhibition at 0.1 µM ([4]; read-out: Inhibition Rate): 0%
Compound: O=C(O)c1cc(C(=O)O)c2c(n1)c(O)c(O)c1cc(C(=O)O)[nH]c12 [PQQ.H2, PQQ reduced form]

concentration inhibiting the activity by 100% ([2]; human placenta): 2.5 µM | IC50 [2]: 0.42 µM | Inhibition Rate ([2]; inhibitor 1.25 × 10^-6 M/reaction soln.): 97.1% | Inhibition Rate ([2]; inhibitor 2 × 10^-7 M/reaction soln.): 17.6% | Inhibition Rate ([2]; inhibitor 2.5 × 10^-6 M/reaction soln.): 100% | Inhibition Rate ([2]; inhibitor 3 × 10^-7 M/reaction soln.): 29.3% | Inhibition Rate ([2]; inhibitor 5 × 10^-7 M/reaction soln.): 59.0% | Inhibition Rate [2, 8]: 91.2% | Inhibition Rate [2, 9]: 0%
Compound: PQQ dimethyl ethyl ester [PQQ.2Me.Et]
